Data on four compounds can be found in patent US20180256592A1, “ANTIBACTERIAL COMPOSITIONS” (priority 2015, published 2018).

Where only a bound is given, the exact number is not on record here.

What all share (type): cell-based
Test [1] deals with highly resistant gram negative bacterial strains. Kind of test: MIC by agar dilution (MHA, CLSI), whole strain panel of Table 1. The settings on record: read-out: MICs when used alone. The procedure: (§1) The antibacterial activity of combinations according to the invention was investigated against various bacterial strains. In a typical study, minimum inhibitory concentrations (MICs) were determined using Muller Hinton Agar (MHA) (BD, USA) according to Clinical and Laboratory Standards Institute (CLSI) recommendations, (Clinical and Laboratory Standards Institute (CLSI), Performance Standards for Antimicrobial Susceptibility Testing, 20th Informational Supplement, M 100-S20, Volume 30, No. 1, 2010). In short, the inocula were adjusted to deliver about […] colony forming units (CFU) per spot with a multipoint inoculator (Applied Quality Services, UK). The plates were pored with doubling concentration range of the test combinations according to invention containing MHA. The plates were inoculated and were incubated at 35° C. for 18 hours.

Test [2] relates to KP S 440 (OXA 181, SHV, TEM, CTX-M 1). Kind of test: MIC by agar dilution (MHA, CLSI). The note with it: drug alone. As for the experimental part: as §1
For test [3], the system named is Klebsiella H 515 (KPC, class A). Briefly: MIC by agar dilution (MHA, CLSI). The settings on record: drug alone. As for the experimental part: as §1
The subject of test [4] is Klebsiella H 520 (KPC, class A). Briefly: MIC by agar dilution (MHA, CLSI). The note with it: drug alone. The procedure:
as §1

The test system of test [5] is Klebsiella H 521 (KPC, class A). Briefly: MIC by agar dilution (MHA, CLSI). The note with it: drug alone. As for the experimental part: as §1
The test system of test [6] is Klebsiella H 523 (KPC, class A). Briefly: MIC by agar dilution (MHA, CLSI). The settings on record: drug alone. The procedure: as §1
For test [7], the system named is Klebsiella J 101 (TEM, SHV, OMP). Kind of test: MIC by agar dilution (MHA, CLSI). The note with it: drug alone. The procedure:
as §1

The test system of test [8] is Klebsiella J 102 (TEM, SHV, OMP). Kind of test: MIC by agar dilution (MHA, CLSI). The note with it: drug alone. The procedure:
as §1

Test [9] has as its system Klebsiella J 117 (SHV, OMP). Kind of test: MIC by agar dilution (MHA, CLSI). The settings on record: drug alone. As for the experimental part:
as §1

The test system of test [10] is Klebsiella J 130 (SHV, OMP). Briefly: MIC by agar dilution (MHA, CLSI). The note with it: drug alone. As for the experimental part:
as §1

A further test concerns NCTC KP 13442 (OXA-48). Kind of test: MIC by agar dilution (MHA, CLSI). The settings on record: drug alone. The procedure: as §1

Take `O=C(O)[C@H]1/C(=C/CO)O[C@@H]2CC(=O)N21` [Clavulanic acid, clavulanic acid]: in test [1], the MIC is above 32 µg/mL.

For `C[C@@H](O)[C@H]1C(=O)N2C(C(=O)O)=C(SCCN=CN)C[C@H]12` [Imipenem], the MIC in test [2] was 2 µg/mL; in test [3] it was 16 µg/mL; in test [4] it was above 32 µg/mL; in test [5], above 32 µg/mL; in test [6] it was above 32 µg/mL; in [7], 4 µg/mL. The MIC was determined as 8 µg/mL in test [8], 2 µg/mL in test [9], 4 µg/mL in test [10] and 2 µg/mL in the test with NCTC KP 13442 (OXA-48).

Turning to `CC1(C)[C@H](C(=O)O)N2C(=O)C[C@H]2S1(=O)=O` [Sulbactam, sulbactam], in [1], the MIC is above 32 µg/mL.

As for `C[C@]1(Cn2ccnn2)[C@H](C(=O)O)N2C(=O)C[C@H]2S1(=O)=O` [Tazobactam, tazobactam], the MIC in test [1] is above 32 µg/mL.
